# Test results published in article PMC9719540, “Synthesis of an amphiphilic vancomycin aglycone derivative inspired by polymyxins: overcoming glycopeptide resistance in Gram-positive and Gram-negative bacteria in synergy with teicoplanin in vitro” (Scientific Reports, 2022).
# Where “and” joins values, the source holds several entries; their conditions need not be identical. Equal values may be shown once.
# Tests used:
# [1] = system: Acinetobacter baumannii ATCC BAA1605; assay: Antibacterial activity (MIC); assay type: cell-based
# Method: (§1) The routine antibacterial evaluations were carried out as it was described in our previous publication. Antimicrobial synergy was determined by evaluating the fractional inhibitory concentration (FIC) index and was characterized by a conventional checkerboard assay. Bacteria grown to mid-logarithmic phase in MHB were pre-incubated with serially diluted concentrations of teicoplanin or vancomycin and compound 14. The sum of the FICs (ΣFIC) was calculated with the equation ΣFIC = FICA + FICB = (CA/MICA) + (CB/MICB), where MICA and MICB are the MICs of antimicrobial A and B alone, respectively, and CA and CB are the inhibitory concentrations of the drugs when combined, respectively. Synergy was defined as a ΣFICs ≤ 0.5 and additive activity was defined as a ΣFICs > 0.5 ≤ 1.0.
# [2] = system: Bacillus subtilis ATCC 6633; assay: Antibacterial activity (MIC); assay type: cell-based; conditions: Bacillus subtilis, ATCC6633
# Method: as §1
# [3] = system: Enterococcus faecalis 15376 VanA; assay: Antibacterial activity (MIC); assay type: cell-based
# Method: as §1
# [4] = system: Enterococcus faecalis ATCC 29212; assay: Antibacterial activity (MIC); assay type: cell-based; conditions: Enterococcus faecalis, ATCC29212
# Method: as §1
# [5] = system: Enterococcus faecalis ATCC 51299 VanB; assay: Antibacterial activity (MIC); assay type: cell-based
# Method: as §1
# [6] = system: Escherichia coli ATCC 25218; assay: Antibacterial activity (MIC); assay type: cell-based; conditions: Escherichia coli, ATCC25218
# Method: as §1
# [7] = system: Klebsiella pneumoniae ST258 clone K 160/09; assay: Antibacterial activity (MIC); assay type: cell-based
# Method: as §1
# [8] = system: Pseudomonas aeruginosa ATCC 27853; assay: Antibacterial activity (MIC); assay type: cell-based; conditions: Pseudomonas aeruginosa, ATCC27853
# Method: as §1
# [9] = system: Staphylococcus aureus MRSA ATCC 33591; assay: Antibacterial activity (MIC); assay type: cell-based
# Method: as §1
# [10] = system: Staphylococcus aureus MSSA ATCC 29213; assay: Antibacterial activity (MIC); assay type: cell-based
# Method: as §1
# [11] = system: Staphylococcus epidermidis ATCC 35984 biofilm; assay: Antibacterial activity (MIC); assay type: cell-based
# Method: as §1
# [12] = system: Staphylococcus epidermidis mecA; assay: Antibacterial activity (MIC); assay type: cell-based
# Method: as §1
# [13] = system: Acinetobacter baumannii ATCC BAA1605; assay: Checkerboard assay, combined susceptibility (FIC index); assay type: cell-based; conditions: for MIC of antibiotic in comb.: antibiotic combined with 14; for MIC of antibiotic alone: checkerboard
# Method: (§2) To determine the activity profile of teicoplanin and vancomycin in combination with compound 14, combined susceptibility tests were perfomed against […] Gram negative strains including Escherichia coli, Pseudomonas aeruginosa, Acinetobacter baumannii and Klebsiella pneumoniae bacteria. The combined effects of compound 14 and the glycopeptide antibiotics were determined by conventional checkerboard assays (images of the chequerboard assay for synergistic combinations are shown in Supplementary Information S1).
# as §1
# [14] = system: Escherichia coli ATCC 25218; assay: as above; assay type: cell-based; conditions: for MIC of antibiotic in comb.: antibiotic combined with 14; for MIC of antibiotic alone: checkerboard
# Method: as §2, §1
# [15] = system: Klebsiella pneumoniae ST258 clone K 160/09; assay: as above; assay type: cell-based; conditions: for MIC of antibiotic in comb.: antibiotic combined with 14; for MIC of antibiotic alone: checkerboard
# Method: as §2, §1
# [16] = system: Pseudomonas aeruginosa ATCC 27853; assay: as above; assay type: cell-based; conditions: for MIC of antibiotic in comb.: antibiotic combined with 14; for MIC of antibiotic alone: checkerboard
# Method: as §2, §1
# [17] = MTT cytotoxicity (cell viability); assay type: cell-based, human; conditions: human; Caco-2 cells, MTT, 72 h
# Method: (§3) Human Caco-2 intestinal epithelial cells were obtained from European Collection of Cell Cultures (ECACC, UK) and grown routinely in Dulbecco’s Minimum Essential Medium (DMEM), supplemented with 10% fetal bovine serum (FBS), 1% non-essential amino acid and 1% penicillin–streptomycin solution.
# (§4) In cell viability experiments, 1 × 10^4 hCMEC/D3 or Caco-2 cells/well were seeded on 96-weel plates. After 24 h of incubation, cells were treated with test solutions in different concentrations. The stock solution of the test molecule was dissolved in DMSO and further diluted with cell culture medium to prepare test solutions. […] The control group received culture medium. Cells were incubated with the test solutions for 72 h at 37 °C in an atmosphere of 5% CO2, and test solutions were replaced with 0.05 mg/ml 3-(4,5-dimethylthiazol-2-yl)-2,5-diphenyltetrazolium bromide (MTT) solutions prepared in PBS. Cells were incubated with MTT solutions for 4 h at 37 °C and the formed dark blue formazan crystals were dissolved in acidic isopropanol (isopropanol: 1.0 N hydrochloric acid = 25:1). The absorbance was measured at 570 nm against a 690 nm reference wavelength with a Thermo Fisher Multiskan Go microplate reader (Thermo Fisher, Waltham, MA, USA). Cell viability was expressed as the percentage of the untreated control and IC50 values were calculated by GraphPad Prism 7 software (GraphPad Software Inc., San Diego, CA, USA).
# Caco-2 cells = assay: MTT cytotoxicity (cell viability); assay type: cell-based, human; conditions: between 0.082 and 200 µM (0.155–375.94 µg/mL)
# Method: as §3, §4
# hCMEC/D3 cells = assay: MTT cytotoxicity (cell viability); assay type: cell-based, human; conditions: between 0.082 and 200 µM (0.155–375.94 µg/mL)
# Method: The human immortalized hCMEC/D3 cells (Merck KGaA, Darmstadt, Germany, Cat. # SCC066) were cultured in EndoGRO-MV Complete Culture Media (supplemented with the components of the kit and fibroblast growth factor 2 (FGF-2) at 1 ng/mL final concentration).
# as §4
Compound,MIC [2],MIC [4],MIC [6],MIC [8],MIC of antibiotic in comb. [13],MIC of antibiotic alone [13],MIC of antibiotic in comb. [14],MIC of antibiotic alone [14],MIC of antibiotic in comb. [15],MIC of antibiotic alone [15],MIC of antibiotic in comb. [16],MIC of antibiotic alone [16],further results
CN[C@H](CC(C)C)C(=O)N[C@H]1C(=O)N[C@@H](CC(N)=O)C(=O)N[C@H]2C(=O)N[C@H]3C(=O)N[C@H](C(=O)N[C@H](C(=O)O)c4cc(O)cc(O)c4-c4cc3ccc4O)[C@H](O)c3ccc(c(Cl)c3)Oc3cc2cc(c3O[C@@H]2O[C@H](CO)[C@@H](O)[C@H](O)[C@H]2O[C@H]2C[C@](C)(N)[C@H](O)[C@H](C)O2)Oc2ccc(cc2Cl)[C@H]1O [Vancomycin],0.5 µg/mL,1 µg/mL,256 µg/mL,256 µg/mL,64 µg/mL,128 µg/mL,2 µg/mL,256 µg/mL,256 µg/mL,256 µg/mL,16 µg/mL,256 µg/mL,"MIC ([1]; Acinetobacter baumannii, ATCCBAA1605): 128 µg/mL; MIC ([3]; Enterococcus faecalis, 15376VANA): 256 µg/mL; MIC ([5]; Enterococcus faecalis, ATCC51299): 128 µg/mL; MIC ([7]; Klebsiella pneumoniae): 256 µg/mL; MIC ([9]; Staphylococcus aureus): 0.5 µg/mL; MIC ([10]; Staphylococcus aureus): 0.5 µg/mL; MIC ([11]; Staphylococcus epidermidis, ATCC35984): 2 µg/mL; MIC ([12]; Staphylococcus epidermidis): 4 µg/mL; IC50 at 72 h [17]: 54.2 µM and 78.7 µg/mL"
Teicoplanin,0.5 µg/mL,1 µg/mL,256 µg/mL,256 µg/mL,32 µg/mL,128 µg/mL,2 µg/mL,256 µg/mL,256 µg/mL,256 µg/mL,32 µg/mL,256 µg/mL,MIC ([1]; Acinetobacter baumannii ATCC BAA1605): 128 µg/mL; MIC ([3]; Enterococcus faecalis 15376 VanA): 256 µg/mL; MIC ([5]; Enterococcus faecalis ATCC 51299 VanB): 0.5 µg/mL; MIC ([7]; Klebsiella pneumoniae ST258 clone K 160/09): 256 µg/mL; MIC ([9]; Staphylococcus aureus MRSA ATCC 33591): 0.5 µg/mL; MIC ([10]; Staphylococcus aureus MSSA ATCC 29213): 0.5 µg/mL; MIC ([11]; Staphylococcus epidermidis ATCC 35984 biofilm): 4 µg/mL; MIC ([12]; Staphylococcus epidermidis mecA): 16 µg/mL; cytotoxic effect (Caco-2 cells): did not show cytotoxic effect; cytotoxic effect (hCMEC/D3 cells): did not show cytotoxic effect
